Measured values taken from patent US10098350B2, “Fungicidal amides” (E. I. DU PONT DE NEMOURS AND COMPANY, priority 2013, dated 2018).

Columns and labels:
Type in all cases: in vivo
[1] = tested on: Septoria tritici; experiment: Test C: wheat seedlings sprayed with test suspension, inoculated with Septoria tritici (wheat leaf blotch), visual disease rating
Procedure, shortened: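 Wheat seedlings sprayed to run-off with compound suspended in acetone/water with 250 ppm Trem 014, at 10, 40, 50 or 200 ppm (40–800 g ai/ha). Inoculated with Septoria tritici spores the next day, held 48 h saturated at 24 °C, then 21 days at 20 °C. Visual rating 0–100% disease control relative to controls.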

[2] = tested on: Puccinia recondite f. sp. tritici; experiment: Test D: wheat seedlings sprayed with test suspension, inoculated with Puccinia recondite f. sp. tritici (wheat leaf rust), visual disease rating
Procedure, shortened: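 Wheat seedlings were sprayed to run-off with compound suspended in 50/50 acetone–water containing 250 ppm Trem 014, at 10-200 ppm (40-800 g ai/ha). They were inoculated with rust spores the next day, then kept 24 h saturated at 20 °C and 6 days at 20 °C. Scores are visual % disease control versus untreated controls.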

[3] = tested on: Botrytis cinerea; experiment: Test A: tomato seedlings sprayed with test suspension, inoculated with Botrytis cinerea (gray mold), visual disease rating
Source text: (§1) General protocol for preparing test suspensions for Tests A-E: the test compounds were first dissolved in acetone in an amount equal to 3% of the final volume and then suspended at the desired concentration (in ppm) in acetone and purified water (50/50 mix by volume) containing 250 ppm of the surfactant Trem® 014 (polyhydric alcohol esters). The resulting test suspensions were then used in Tests A-E. Samples were applied to plants at either a 10 ppm (**), 40 ppm, 50 ppm (*) or 200 ppm (#) test solution to the point of run-off on the test plants with the equivalent of a rate of 40 g ai/ha, 160 g ai/ha, 200 g ai/ha, or 800 g ai/ha, respectively.
The test suspension was sprayed to the point of run-off on tomato seedlings. The following day the seedlings were inoculated with a spore suspension of Botrytis cinerea (the causal agent of gray mold on many crops) and incubated in a saturated atmosphere at 20° C. for 48 h, and moved to a growth chamber at 27° C. for 2 days, after which time visual disease ratings were made.
(§2) Results for Tests A-E are given in Table A. In the Table, a rating of 100 indicates 100% disease control and a rating of 0 indicates no disease control (relative to the controls). A dash (-) indicates no test results.

[4] = tested on: Stagonospora nodorum (also known as Septoria nodorum); experiment: Test B: wheat seedlings sprayed with test suspension, inoculated with Stagonospora nodorum (wheat glume blotch), visual disease rating
Source text: as §1
The test suspension was sprayed to the point of run-off on wheat seedlings. The following day the seedlings were inoculated with a spore suspension of Stagonospora nodorum (also known as Septoria nodorum; the causal agent of wheat glume blotch) and incubated in a saturated atmosphere at 20° C. for 48 h, and then moved to a growth chamber at 20° C. for 6 days, after which time visual disease ratings were made.
as §2

[5] = tested on: Erysiphe graminis f. sp. tritici; experiment: Test E: wheat seedlings sprayed with test suspension, inoculated with Erysiphe graminis f. sp. tritici (wheat powdery mildew), visual disease rating
Procedure, shortened: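 Wheat seedlings sprayed to run-off with compound suspension (acetone 3%, acetone/water 50/50 with 250 ppm Trem 014) at 10, 40, 50 or 200 ppm (40–800 g ai/ha), inoculated next day with spore dust. Incubated 7 or 8 days at 20° C, then rated visually as % disease control relative to controls (0–100).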

[6] = Cmpd. No. marked '#' (other test rate; meaning of mark not shown)
[7] = Cmpd. No. unmarked, 100 = 100% disease control, 0 = no control relative to controls

SMILES | Test C rating (% disease control) [1, 6] | Test C rating (% disease control) [1, 7] | Test D rating (% disease control) [2, 6] | Test D rating (% disease control) [2, 7] | Test A rating (% disease control) [3, 6] | Test A rating (% disease control) [3, 7] | Test B rating (% disease control) [4, 6] | Test B rating (% disease control) [4, 7] | Test E rating (% disease control) [5, 6] | Test E rating (% disease control) [5, 7]
CC(c1ccc(-n2ccc(C(F)(F)F)n2)nc1)N(C(=O)c1cn(C)nc1C(F)F)C1CC1 (stereo not shown) [Compound 1, N-cyclopropyl-3-(difluoromethyl)-1-methyl-N-[1-[6-[3-(trifluoromethyl)-1H-pyrazol-1-yl]-3-pyridinyl]ethyl]-1H-pyrazole-4-carboxamide] | 93% | 86% | 28% | 0% | 0% | 0% | 69% | 0% | 98% | 96%
Cn1nc(C(F)F)c(C(=O)N(Cc2cccc(-n3ccc(C(F)(F)F)n3)c2)C2CC2)c1F [Compound 3, N-cyclopropyl-3-(difluoromethyl)-5-fluoro-1-methyl-N-[[3-[3-(trifluoromethyl)-1H-pyrazol-1-yl]phenyl]methyl]-1H-pyrazole-4-carboxamide] |  | 100% |  | 99% |  | 0% |  | 100% |  | 99%
Cn1cc(C(=O)N(Cc2cccc(-n3ccc(C(F)(F)F)n3)c2)C2CC2)c(C(F)F)n1 [Compound 9, N-cyclopropyl-3-(difluoromethyl)-1-methyl-N-[[3-[3-(trifluoromethyl)-1H-pyrazol-1-yl]phenyl]methyl]-1H-pyrazole-4-carboxamide] | 100% | 96% | 74% | 9% | 39% | 9% | 99% | 93% | 96% | 81%
Cn1cc(C(=O)N(Cc2ccc(-n3cc(Br)cn3)cc2Cl)C2CC2)c(C(F)F)n1 [Compound 10] |  | 38% |  | 86% |  | 0% |  | 99% |  | 0%
Cn1nc(C(F)F)c(C(=O)N(Cc2ccc(-n3ccc(C(F)(F)F)n3)cc2Cl)C2CC2)c1F [Compound 12, N-[[2-chloro-4-[3-(trifluoromethyl)-1H-pyrazol-1-yl]phenyl]methyl]-N-cyclopropyl-3-(difluoromethyl)-5-fluoro-1-methyl-1H-pyrazole-4-carboxamide] |  | 100% |  | 99% |  | 0% |  | 100% |  | 97%
Cn1cc(C(=O)N(Cc2ccc(-n3ccc(C(F)(F)F)n3)cc2Cl)C2CC2)c(C(F)(F)F)n1 [Compound 35] |  | 89% |  | 9% |  | 0% |  | 0% |  | 0%
CC(c1ccc(C(F)(F)F)c(-n2ccc(C(F)(F)F)n2)c1)N(C(=O)c1cn(C)nc1C(F)F)C1CC1 (stereo not shown) [compound 21] |  |  |  | 0% |  | 0% |  | 0% |  | 64%
CC(c1cc(Cl)cc(-n2ccc(C(F)(F)F)n2)c1)N(C(=O)c1cn(C)nc1C(F)F)C1CC1 (stereo not shown) [compound 22] |  |  |  | 55% |  | 0% |  | 90% |  | 81%
Cn1nc(C(F)F)c(C(=O)N(Cc2ccc(-n3ccc(C(F)(F)F)n3)cc2OC(F)(F)F)C2CC2)c1F [compound 23] |  |  |  | 99% |  | 0% |  | 98% |  | 98%
Cn1cc(C(=O)N(Cc2c(Cl)cc(-n3cccn3)cc2Cl)C2CC2)c(C(F)F)n1 [compound 24] |  |  |  | 99% |  | 0% |  | 100% |  | 90%
COc1cc(-n2ccc(C(F)(F)F)n2)ccc1CN(C(=O)c1c(C(F)F)nn(C)c1F)C1CC1 [compound 25] |  |  |  | 100% |  | 0% |  | 100% |  | 98%
Cc1ccc(C(C)N(C(=O)c2cn(C)nc2C(F)F)C2CC2)cc1-n1ccc(C(F)(F)F)n1 (stereo not shown) [compound 26] |  |  |  | 0% |  | 0% |  | 99% |  | 81%
Cn1cc(C(=O)N(Cc2cc(-n3ccc(C(F)(F)F)n3)ccc2Br)C2CC2)c(C(F)F)n1 [compound 32] |  |  |  | 0% |  | 0% |  | 0% |  | 97%
Cn1cc(C(=O)N(Cc2cc(-n3ccc(C(F)(F)F)n3)ccc2C2CC2)C2CC2)c(C(F)F)n1 [compound 33] |  |  |  | 68% |  | 0% |  | 98% |  | 94%
Cn1cc(C(=O)N(Cc2c(Cl)cc(-n3ccc(C(F)(F)F)n3)cc2Cl)C2CC2)c(C(F)F)n1 [compound 36] |  |  |  | 99% |  | 0% |  | 99% |  | 90%
Cn1nc(C(F)F)c(C(=O)N(Cc2ccc(-n3ccc(C(F)(F)F)n3)cc2C(F)(F)F)C2CC2)c1F [compound 37] |  |  |  | 97% |  | 0% |  | 100% |  | 99%
Cn1cc(C(=O)N(Cc2cccc(-n3ccc(C(F)(F)F)n3)c2Cl)C2CC2)c(C(F)F)n1 [compound 38] |  |  |  | 41% |  | 14% |  | 0% |  | 69%
Cc1cnn(-c2ccc(CN(C(=O)c3c(C(F)F)nn(C)c3F)C3CC3)c(Cl)c2)c1 [compound 144] |  | 99% |  | 97% |  |  |  | 100% |  | 99%
Cn1nc(C(F)F)c(C(=O)N(Cc2ccc(-n3cncn3)cc2Cl)C2CC2)c1F [compound 145] |  | 95% |  | 0% |  |  |  | 95% |  | 0%
Cn1nc(C(F)F)c(C(=O)N(Cc2ccc(-n3cnc(Cl)n3)cc2Cl)C2CC2)c1F [compound 146] |  | 94% |  | 0% |  |  |  | 0% |  | 0%
Cn1nc(C(F)F)c(C(=O)N(Cc2ccc(-n3cnc(Br)n3)cc2Cl)C2CC2)c1F [compound 147] |  | 93% |  | 0% |  |  |  | 0% |  | 0%
